Measured values: patent publication US20150352038A1, “A DOSAGE FORM FOR ADMINISTERING AN ACTIVE PRINCIPLE FOR ACCELERATED SLEEP INDUCTION AND/OR FOR TREATING SLEEP DISORDERS AND/OR FOR TREATING A CENTRAL NERVOUS SYSTEM DISORDER” (priority 2013, published 2015)
Values after ≈ are worked out from the molar mass of the structure shown. Counter-ions that a name gives are not always drawn.

Tests used:
[1] = cited from earlier work
[2] = Time to onset of calming / sedative / sleep-inducing effect; type: in vivo; details: hydro-alcoholic solution of the invention via the oral mucous membrane
[3] = cited from earlier work; remark: listed apart in the source
[4] = system: plasma proteins; details: cited from earlier work; for bonded to plasma proteins: in the blood stream
[5] = oral; % of the ingested/administered dose; cited from earlier work
[6] = administered orally, doses of 5 mg or 10 mg; cited from earlier work
[7] = Bioavailability after oral administration; type: in vivo
[8] = Stability in alcohol solution; type: physicochemical; details: degree of alcohol starting from 35°
Protocol: In the studies, the doses normally administered orally, at bedtime, varied over the range 0.3 mg to 5 mg. High doses of Melatonin may exert a negative paradoxical action that propagates to phases that are not phases of responding to Melatonin.

| Molecule | half-life in the organism ([3]; in vivo) | bioavailability when taken orally [5] | solubility in ethanol, in words ([1]; ethanol) | also measured |
| --- | --- | --- | --- | --- |
| Cc1ccc(-c2nc3ccc(C)cn3c2CC(=O)N(C)C)cc1 [Zolpidem tartrate] |  |  |  | solubility in water and in ethanol/alcohol, in words [1]: less soluble in water and in ethanol than Zolpidem base |
| Cc1ccc(-c2nc3ccc(C)cn3c2CC(=O)N(C)C)cc1 [Zolpidem] | 2 to 3 h | ≤ 70% | quite soluble in ethanol | time until calming effect / drowsiness appears, in words [2]: within only a few minutes; bonded to plasma proteins [4]: 92%; time until effect is perceptible [6]: at least 15 min; solubility in ethanol ([1]; ethanol): 50 mg/mL (≈ 163 mM) |
| CN(C)CCOC(C)(c1ccccc1)c1ccccn1 (stereo not shown) [Doxylamine] | around 3.5 h | 24.7% | easily soluble in ethanol | time until calming effect / drowsiness appears, in words [2]: within a few minutes |
| Cc1ncc2n1-c1ccc(Cl)cc1C(c1ccccc1F)=NC2 [Midazolam] |  | 36% | freely soluble in ethanol | bonding to plasma proteins, in words [4]: bonds strongly to plasma proteins; solubility in water ([1]; water): 0.024 mg/mL (≈ 0.0737 mM) |
| (S)—N-(2-(1,6,7,8-tetrahydro-2H-indeno-(5,4)furan-8-yl)ethyl)propionamide [Ramelteon] |  | 1.8% | very easily soluble in ethanol | bonded to plasma proteins [4]: 82%; fraction of the orally administered dose destroyed / lost [7]: 98.2% |
| CN1CCN(C(=O)O[C@H]2c3nccnc3C(=O)N2c2ccc(Cl)cn2)CC1 [Eszopiclone] | 6 h |  |  | bonded to plasma proteins [4]: 60% |
| COc1ccc2[nH]cc(CCNC(C)=O)c2c1 [Melatonin, N-Acetyl-5-Methoxytryptamine] |  | ~15% | very soluble in ethanol | half-life ([3]; in vivo): greater than 50 min; stability in alcohol solution [8]: increases with increasing degree of alcohol |
| COc1ccc2cccc(CCNC(C)=O)c2c1 [Agomelatine] | less than 2 h | less than 5% |  | fraction of the orally administered dose destroyed / lost [7]: 95% |
| Cc1nnc2n1-c1sc(Br)cc1C(c1ccccc1Cl)=NC2 [Brotizolam] | 4.4 h | around 50% |  |  |
| CN1CCC(=C2c3ccccc3C=Cc3ccccc32)CC1 [Cyproheptadine] |  | ~25% |  | half-life, compared in words ([3]; compared with Doxylamine): longer than the half-life of Doxylamine |
| CN1CCN(C(=O)OC2c3nccnc3C(=O)N2c2ccc(Cl)cn2)CC1 (stereo not shown) [Zopiclone] |  |  |  | solubility in water and in ethanol/alcohol, in words [1]: not very soluble in water and alcohol |
